Results as given in US20260102359A1, “COMBINATION TREATMENT OF DERMAL AND TRANSDERMAL FIBROTIC DISEASES, DISORDERS AND ASSOCIATED PAIN AND INFLAMMATION” (ERESINA, LLC, priority 2022, published 2026).
Where a name gives a salt, the structure may show the parent alone. *1 amine or outer side, *2 acyl side, *3 side chain or, on linkers, in order; H or OH if unused. Where a SMILES comes first, the peptide text is derived from it. Bridges are numbered along the chain shown (N, C = ends). [ ]: non-standard residue; d: D form. The star is where a group is joined. pTerphenylCO(4''-OnC5H11) = CCCCCOc1ccc(-c2ccc(-c3ccc(C(=O)*)cc3)cc2)cc1; Orn(4R-OH,5R-OH) = O=C([C@H](C[C@@H](O)[C@@H](O)N[*:3])N[*:1])[*:2]; hTyr(3S-OH,4S-OH) = N[C@H](C(=O)O)[C@H](O)[C@@H](O)c1ccc(O)cc1; Pro(3S-OH,4S-Me) = C[C@H]1CN[C@H](C(=O)O)[C@H]1O; Hyp = O=C(O)[C@@H]1C[C@@H](O)CN1

The compounds below were run on hDMFa myofibroblast cells (assay: not given). Details: not given.

Compound	Compound Myofibroblast Cytotoxicity Activity
CO[C@H]1C[C@@H]2CC[C@@H](C)[C@@](O)(O2)C(=O)C(=O)N2CCCC[C@H]2C(=O)O[C@H]([C@H](C)C[C@@H]2CC[C@@H](OCCO)[C@H](OC)C2)CC(=O)[C@H](C)/C=C(\C)[C@@H](O)[C@@H](OC)C(=O)[C@H](C)C[C@H](C)/C=C/C=C/C=C/1C [Cmpd 446, Everolimus (RAD001)]	+++++
CC(C)(CO)C(O)C(=O)NCCCO (racemic) [Cmpd 370, DL-Panthenol]	+++
CN(C)CCCN1c2ccccc2Sc2ccc(Cl)cc21 [Cmpd 253, Chlorpromazine HCl]	+++
Cc1ccc(S(=O)(=O)/C=C/C#N)cc1 [Cmpd 158, Bay 11-7821(BAY 11-7082)]	+++++

Each compound was assayed on hDMFa myofibroblast cells (assay: Myofibroblast cytotoxicity, MTS cell viability assay). Details: 8-12 hours in serum-free inhibitor media, […].

Compound	Compound Myofibroblast Cytotoxicity Activity
CCCCCCCCCCCCCCCCCCOP(=O)([O-])OC1CC[N+](C)(C)CC1 [Cmpd 771, Perifosine]	+++++
Nc1ccc2cc3ccc(N)cc3nc2c1.Nc1ccc2cc3ccc(N)cc3nc2c1.O=S(=O)(O)O [Cmpd 798, Proflavine Hemisulfate]	+++++
C#C[C@]1(O)CC[C@H]2[C@@H]3CCC4=CCCC[C@@H]4[C@H]3CC[C@@]21C [Cmpd 623, Lynestrenol]	+++++
CCCCCCCCN=c1ccn(CCCCCCCCCCn2ccc(=NCCCCCCCC)cc2)cc1 [Cmpd 730, Octenidine (dihydrochloride)]	+++++
NCCC(=O)N[C@@H](Cc1cnc[nH]1)C(=O)O [Cmpd 568, L-Carnosine]	8
CC(=O)Oc1cc(C)c(OC(C)=O)c2ccccc12 [Cmpd 650, Menadiol Diacetate]	+++++
O=C1[C@H]2CCCC[C@H]2C(=O)N1CCCCN1CCN(c2nsc3ccccc23)CC1 [Cmpd 772, Perospirone hydrochloride]	+++++
CC1(C)CC[C@]2(C(=O)O)CC[C@]3(C)C(=CC[C@@H]4[C@@]5(C)CC[C@H](O)C(C)(C)[C@@H]5CC[C@]43C)[C@@H]2C1 [Cmpd 732, Oleanolic acid]	+++++
CN(C)CCC=C1c2ccccc2C(C)(C)c2ccccc21 [Cmpd 647, Melitracen hydrochloride]	+++++

Same assay, conditions: 8-12 hours in serum-free inhibitor media, […], HCl

Compound	Compound Myofibroblast Cytotoxicity Activity
Cl.NCCCC[C@H](N)C(=O)O [Cmpd 597, L-Lysine HCl]	+

Same assay, conditions: MTS viability, 8-12 hours incubation in serum-free inhibitor media, normalized to negative control

Compound	Compound Myofibroblast Cytotoxicity Activity
CC(C)(C)c1cc(C(C)(C)C)c(NC(=O)c2c[nH]c3ccccc3c2=O)cc1O [Cmpd 545, Ivacaftor (VX-770)]	+++++
CO[C@H]1C[C@H](O[C@H]2[C@H](C)O[C@@H](O[C@@H]3/C(C)=C/C[C@@H]4C[C@@H](C[C@]5(C=C[C@H](C)[C@@H](C6CCCCC6)O5)O4)OC(=O)[C@@H]4C=C(C)[C@@H](O)[C@H]5OC/C(=C\C=C\[C@@H]3C)[C@]54O)C[C@@H]2OC)O[C@@H](C)[C@@H]1O [Cmpd 379, Doramectin]	+++++
CCCCCCCCCCCC[N+](C)(C)CCOc1ccccc1 [Cmpd 377, Domiphen Bromide]	+++++

Same assay, conditions: serum-free media with inhibitor 8-12 hours, MTS cell viability, inhibition normalized as percentage of negative control

Compound	Compound Myofibroblast Cytotoxicity Activity
Cc1cc(O)cc(C(C)C)c1 [Cmpd 53]	+
CCCCCCCCCCCCCCCC[N+](C)(C)C.[Br-] [Cmpd 242, Cetrimonium Bromide (CTAB)]	+++++
C[C@H]1[C@H](C)CC[C@]2(C(=O)O)CC[C@]3(C)C(=CC[C@@H]4[C@@]5(C)C[C@@H](O)[C@H](O)[C@@](C)(CO)[C@@H]5CC[C@]43C)[C@H]12 [Cmpd 135, Asiatic acid]	+++++
Cc1ccc([C@@H]2O[C@H](CO)[C@@H](O)[C@H](O)[C@H]2O)cc1Cc1ccc(-c2ccc(F)cc2)s1 [Cmpd 208, Canagliflozin]	+++++
CCCCCOc1ccc(-c2ccc(-c3ccc(C(=O)N[C@H]4C[C@@H](O)[C@@H](O)NC(=O)[C@@H]5[C@@H](O)[C@@H](C)CN5C(=O)[C@H]([C@@H](C)O)NC(=O)[C@H]([C@H](O)[C@@H](O)c5ccc(O)cc5)NC(=O)[C@@H]5C[C@@H](O)CN5C(=O)[C@H]([C@@H](C)O)NC4=O)cc3)cc2)cc1 [Cmpd 124, Anidulafungin] ({pTerphenylCO(4''-OnC5H11)}-[Orn(4R-OH,5R-OH)]T[Hyp][hTyr(3S-OH,4S-OH)]T[Pro(3S-OH,4S-Me)]; lactam 1-C)	+++++
CC1=C(C(=O)OC(C)C)C(c2cccc([N+](=O)[O-])c2)C(C(=O)OC2CN(C(c3ccccc3)c3ccccc3)C2)=C(N)N1 (centres unmarked) [Cmpd 148, Azelnidipine]	+++++
COc1ccc2c(c[n+](C)c3c4cc5c(cc4ccc23)OCO5)c1OC.[Cl-] [Cmpd 244, Chelerythrine Chloride]	+++++
COC(=O)OCOc1c2n(ccc1=O)N([C@@H]1c3ccccc3SCc3c1ccc(F)c3F)[C@@H]1COCCN1C2=O [Cmpd 155, Baloxavir marboxil]	+++++
OCCCCCCCCO [Cmpd 38, 1,8-Octanediol]	+

Same assay, conditions: serum-free media with inhibitor 8-12 hours, MTS viability normalized to negative control

Compound	Compound Myofibroblast Cytotoxicity Activity
COc1ccc2c(O[C@@H]3C[C@H]4C(=O)N[C@]5(C(=O)NS(=O)(=O)C6CC6)C[C@H]5/C=C\CCCCN(C)C(=O)[C@@H]4C3)cc(-c3nc(C(C)C)cs3)nc2c1C [Cmpd 863, Simeprevir]	+++++
Cc1ccc(Sc2ccccc2N2CCNCC2)c(C)c1 [Cmpd 1011, Vortioxetine]	+++++
Sodium Aescinate [Cmpd 869]	+++++
CN[C@@H]1C[C@H]2O[C@@](C)([C@@H]1OC)n1c3ccccc3c3c4c(c5c6ccccc6n2c5c31)C(=O)NC4 [Cmpd 888, Staurosporine]	+++++
Br.Cc1ccc(Sc2ccccc2N2CCNCC2)c(C)c1 [Cmpd 1012, Vortioxetine (Lu AA21004) HBr]	+++++
Sericin Gel [Cmpd 859]	+
